Test results reported in patent US6150361A, “Triazineone compounds for treating diseases due to sarcosystis, neospora and toxoplasma” (Bayer Corporation, priority 1998, dated 2000).
Where “and” joins values, the source holds several entries; their conditions need not be identical. Identical values can stand only once. Entries after “also recorded” stand apart in the source; their conditions may differ.

Legend:
Sarcocystis neurona = assay: Microtiter Monolayer Disruption Assay (MMDA), Sarcocystis neurona; format: cell-based, Sarcocystis neurona strain SN3; conditions: BT cells
Procedure: (§1) In order to determine the scope of protection provided by Ponazuril, in vitro testing was conducted. The following strains of parasites were evaluated for their sensitivity to this compound: Strain SN3 of Sarcocystis neurona; strain SF1 of Sarcocystis falcatula; strain RH of Toxoplasma gondii; and the NC-1 strain of Neospora caninum. […]
(§2) Bovine turbinate (BT) cells were used for all in vitro studies. Cells were grown to confluency in 25 cm^2 flasks in RMPI 1640 media supplemented with 10% v/v fetal bovine serum (FBS), 100 Units penicillin (G/mL), […] streptomycin/mL and 5×10^-2 mM 2-mercpatoethanol. After cell confluence was obtained, cells were maintained in the same media with reduced FBS (2% v/v). Cell cultures were incubated at 37 C. in a humidified atmosphere containing 5% carbon dioxide and 95% air.
(§3) For growth of parasites, BT cell monolayers were infected with parasites and examined with an inverted microscope for the development of lesions (cytopathic effect, "CPE") or the presence of many extracellular merozoites. Once lesions were observed, or many extracellular parasites were present, the monolayer was scraped with the tip of a 5 mL pipette and 1 to 3 drops of the merozoite-containing fluid was transferred to two flasks of fresh BT cells. Merozoites of S. neurona and S. falcatula were passaged in this manner every 5 to 10 days while the tachyzoites of T. gondii and N. caninum were passaged every 3 to 4 days.
The assay used to determine the effectiveness of Ponazuril was the Microtiter Monolayer Disruption Assay (MMDA). This assay was used to determine if the parasites or compound were toxic for BT cells. Flat bottomed 96-well microtiter plates were inoculated with BT cells and the resulting monolayers were used to determine the effects of Toltrazuril and Ponazuril on merozoite production as measured by CPE (plaque formation). Monolayers were inoculated with parasites (S. neurona or S. falcatula at a count of 50,000/well, T. gondii at a level of 10,000/well, and N. caninum at 20,000/well. All wells were inoculated with the test compound 2 hours after infection. Untreated and […] monolayer wells served as parasite controls and uninfected agent treated BT cells served as toxicity controls. Each treatment was examined in replicates of 6. Each well was visually monitored daily and the assay was stopped when 90-100% of the untreated merozoite infected cells had lysed (90-100% CPE). All wells of the plates were rinsed in Phosphate Buffered Saline (PBS) and fixed in 100% methanol for 5 minutes after which they were stained in crystal violet solution. […]

[1] = tested on: Bovine turbinate (BT) cells; format: cell-based; conditions: uninfected BT cells
Procedure: as §2
(§4) The assay used to determine the effectiveness of Ponazuril was the Microtiter Monolayer Disruption Assay (MMDA). This assay was used to determine if the parasites or compound were toxic for BT cells. Flat bottomed 96-well microtiter plates were inoculated with BT cells and the resulting monolayers were used to determine the effects of Toltrazuril and Ponazuril on merozoite production as measured by CPE (plaque formation). […]

[2] = Passing of the blood-brain barrier in horses; format: in vivo; conditions: after oral Toltrazuril daily for 10 days
Procedure: This experiment was conducted in order to determine whether triazineones such as Toltrazuril can pass the blood-brain barrier. Normal horses were divided into three groups of three horses per group. Group 1 horses received Toltrazuril administered orally as a 5% suspension at a dose level of 2.5 mg/Kg. Group 2 horses received Toltrazuril administered orally as a 5% suspension at a dose level of 5.0 mg/Kg. Group 3 horses received Toltrazuril administered orally as a 5% suspension at a dose level of 7.5 mg/Kg. The dosing was repeated daily for 10 days. Blood samples were drawn at 48, 96 and 240 hours and the concentration of Toltrazuril, Toltrazuril sulfoxide and Ponazuril in the serum was measured. Ten days after the start of the treatment (Day 10), a sample of cerebral spinal fluid was removed from each horse and the concentrations of Toltrazuril, Toltrazuril Sulfoxide and Ponazuril were again measured in these samples. The concentrations of Toltrazuril, Toltrazuril Sulfoxide and Ponazuril in the serum and cerebral spinal fluid are reported in TABLES 5a and 5b.

Neospora caninum NC-1 = assay: Microtiter Monolayer Disruption Assay (MMDA), Neospora caninum; format: cell-based, Neospora caninum strain NC-1; conditions: BT cells
Procedure: as §1, §2, §3, §4

EPM-Infected Horses = assay: Treatment of naturally occurring clinical EPM in horses with Ponazuril paste (clinical score); format: in vivo
Procedure: The compound was formulated into a paste using Ponazuril as a 15% active ingredient (a.i.) as described in EXAMPLE 1. It was administered to horses already diagnosed with EPM once a day for 28 days at a dose rate between 2.5 mg/Kg and 10 mg/Kg.
Naturally occurring clinical cases of EPM were well characterized by signalment and laboratory diagnosis. The diagnosis used for incorporation of EPM-positive horses into this trial was as follows: Confirmed asymmetrical neurological deficit as determined by a standardized neurological examination, to include radiography, indicative of EPM; Positive Western Blot for Sarcocystis neurona IgG; Red Blood Cell count below 500 cells/mL; CSF indices--Total Protein<90, IgG index>0.3. AQ quotient<2.2.
Additional requirements were that the horses were not suffering from diseases other than EPM. Therefore, they had to meet the following criteria: Negative CSF (<1:4) for EHV-1; Normal serum values for Vitamin E (.2.0 μg/mL); Lack of seizure disorders; Lack of behavior disorders.
Diagnosed horses were randomly assigned to groups. Group 1 horses received the paste formulation daily at a dose rate of 5 mg/Kg whereas Group 2 horses received the paste formulation daily at a dose rate of 10 mg/Kg. The treatment dose was based on body weight. The horses were evaluated for a period of 90 days (approximately 60 days after discontinuation of treatment) in order to determine that treatment was indeed effective. The response to treatment was scored using the following system:
1) 0=complete success-clinically normal with a negative CSF; 2) 1=Deficit just detected at a normal gait; 3) 2=Deficit easily detected and exaggerated by backing, turning, swaying, jaw loin pressure and neck extension; 4) 3=Deficit very prominent on walking, Facial turning, loin pressure or neck extension; 5) 4=Stumbling, tripping and falling down spontaneously; 6) 5=Recumbent, unable to rise. An improvement of one (1) unit in the score was considered a significant improvement.

[3] = individual horse, 5 mg/Kg paste daily for 28 days, score 0=complete success to 5=recumbent, listed as Toltrazuril Sulfone
[4] = individual horse, 10 mg/Kg paste daily for 28 days, score 0=complete success to 5=recumbent, listed as Toltrazuril Sulfone
[5] = sum of scores of group, 5 mg/Kg daily for 28 days
[6] = sum of scores of group, 10 mg/Kg daily for 28 days

Cc1cc(-n2c(=O)[nH]c(=O)n(C)c2=O)ccc1Oc1ccc(S(=O)(=O)C(F)(F)F)cc1 [Ponazuril]
inhibition at 0.1 µg/mL (Sarcocystis neurona; 0.1 μg/mL, read-out: Percent Inhibition of Cell Destruction, 0.1 μg/mL): 0% | inhibition at 1 µg/mL (Sarcocystis neurona; 1 μg/mL, read-out: Percent Inhibition of Cell Destruction, 1 μg/mL): 40% | inhibition at 5 µg/mL (Sarcocystis neurona; 5.0 μg/mL, read-out: Percent Inhibition of Cell Destruction, 5.0 μg/mL): 90% | inhibition at 10 µg/mL (Sarcocystis neurona; 10 μg/mL, read-out: Percent Inhibition of Cell Destruction, 10 μg/mL): 100% | toxicity to the BT cells [1]: not toxic | crossing of the blood-brain barrier [2]: effectively cross the blood-brain barrier; also recorded: crosses this barrier more effectively than does Toltrazuril | inhibition at 0.001 µg/mL (Neospora caninum NC-1; 0.001 μg/mL, read-out: Percent Inhibition of Cell Destruction, 0.001 μg/mL): 3% | inhibition at 0.01 µg/mL (Neospora caninum NC-1; 0.01 μg/mL, read-out: Percent Inhibition of Cell Destruction, 0.01 μg/mL): 13% | inhibition at 1 µg/mL (Neospora caninum NC-1; 1.0 μg/mL, read-out: Percent Inhibition of Cell Destruction, 1.0 μg/mL): 100% | improvement in total scores, Group 1 versus Group 2 (EPM-Infected Horses; 5 mg/Kg versus 10 mg/Kg): approximately equivalent | horses showing a significant improvement in clinical score by day 90 (EPM-Infected Horses; 10 mg/Kg, treated for 28 days, improvement of 1 unit significant): 100% | effectiveness for the active treatment of EPM in horses (EPM-Infected Horses; either 5 mg/Kg or 10 mg/Kg): effective | clinical score, Day 28, 5 mg/Kg Dose (EPM-Infected Horses; [3]): 1 and 2 and 0 and 3 | clinical score, Day 90, 5 mg/Kg Dose (EPM-Infected Horses; [3]): 2 and 1 and 0 and 3 | clinical score, Day 28, 10 mg/Kg Dose (EPM-Infected Horses; [4]): 2 and 1 and 0 | clinical score, Day 90, 10 mg/Kg Dose (EPM-Infected Horses; [4]): 1 and 0 | clinical score, Day 0, 5 mg/Kg Dose (EPM-Infected Horses; individual horse, before treatment, 5 mg/Kg paste daily for 28 days, score 0=complete success to 5=recumbent, listed as Toltrazuril Sulfone): 2 and 3 | clinical score, Day 0, 10 mg/Kg Dose (EPM-Infected Horses; individual horse, before treatment, 10 mg/Kg paste daily for 28 days, score 0=complete success to 5=recumbent, listed as Toltrazuril Sulfone): 4 and 3 and 2 | TOTAL clinical score, Day 28, 5 mg/Kg Dose (EPM-Infected Horses; [5]): 13 | TOTAL clinical score, Day 90, 5 mg/Kg Dose (EPM-Infected Horses; [5]): 6 | TOTAL clinical score, Day 28, 10 mg/Kg Dose (EPM-Infected Horses; [6]): 15 | TOTAL clinical score, Day 90, 10 mg/Kg Dose (EPM-Infected Horses; [6]): 4 | TOTAL clinical score, Day 0, 5 mg/Kg Dose (EPM-Infected Horses; sum of scores of group, before treatment, 5 mg/Kg): 17 | TOTAL clinical score, Day 0, 10 mg/Kg Dose (EPM-Infected Horses; sum of scores of group, before treatment, 10 mg/Kg): 19
